# Reference: US4666902A, “Tetrahydropyridazinone derivatives, processes for their preparation and their use” (Cassella Aktiengesellschaft, priority 1983, dated 1987)
# Tested on: thrombocyte aggregation induced by ADP
# Test: Inhibition of thrombocyte aggregation in vitro (Born), ADP
# Assay type: cell-based
# Details: induced by 10 μM ADP
# Procedure: (§1) The values of tables 3 to 5 showing the inhibition of the thrombocytic aggregation were determined in vitro according to the Born method (J. Physiol. 162 67 P (1962)) using arachidonic acid, thrombin or adenosine diphosphate as aggregation agent.
# Inhibition of thrombocyte aggregation in vitro (according to
# BORN) induced by 10 μM ADP
row,Structure (SMILES),IC50 [µM]
1,COc1ccc(C2=NNC(=O)CC2CO)cc1 (centres unmarked) [drawing 107],50
2,O=C1CC(CO)C(c2ccc(N3CCCC3=O)cc2)=NN1 (centres unmarked) [drawing 113],20
3,Cc1ccc(C2=NNC(=O)CC2CO)cc1 (centres unmarked) [drawing 106],150
4,O=C1CC(CO)C(c2ccc(OCCn3ccnc3)cc2)=NN1 (centres unmarked) [drawing 112],150
5,O=C1CC(CO)C(c2ccc(OCc3cccnc3)cc2)=NN1 (centres unmarked) [drawing 114],36
6,O=C1CC(CO)C(c2ccccc2)=NN1 (centres unmarked) [drawing 105],> 100
7,O=C1CC(CO)C(c2ccc(Cl)cc2)=NN1 (centres unmarked) [drawing 108],70
8,N#Cc1ccc(C2=NNC(=O)CC2CO)cc1 (centres unmarked) [drawing 115],20
9,COc1ccc(C2=NNC(=O)CC2CO)cc1OC (centres unmarked) [drawing 110],9
10,Cc1nnc(COc2ccc(C3=NNC(=O)CC3CO)cc2)o1 (centres unmarked) [drawing 111],20
11,CC(=O)Nc1ccc(C2=NNC(=O)CC2CO)cc1 (centres unmarked) [drawing 109],10

# Tested on: action of arachidonic acid
# Test: Influence on the action of arachidonic acid in vivo under anesthesia (Lefort and Vargaftig)
# Set-up: species or system guinea pig; key: -: no action; (+): weak; +: medium; ++: strong; +++: very strong
# Details: 0.1-1 mg/kg i.v.
# Procedure: The values of Table 2 showing the influence on the action of arachidonic acid were determined in guinea pigs under anesthesia using the Lefort and Vargaftig method (Br. J. Pharmac. 63, 35 (1978)).
# Influence on the action of arachidonic acid (arachidonic acid
# […] i.v.) in vivo in guinea pigs under anesthesia
Structure (SMILES),PGI2 Effect: Lowering of blood pressure,TXA2 Effect: Bronchospasm,TXA2 Effect: Thrombocytopenia
CC(=O)Nc1ccc(C2=NNC(=O)CC2CO)cc1 (centres unmarked) [drawing 65],++,++,++

# Same assay, conditions: 0.3-3 mg/kg i.v.
Structure (SMILES),PGI2 Effect: Lowering of blood pressure,TXA2 Effect: Bronchospasm,TXA2 Effect: Thrombocytopenia
O=C1CC(CO)C(c2ccc(N3CCCC3=O)cc2)=NN1 (centres unmarked) [drawing 62],+,+,++
COc1ccc(C2=NNC(=O)CC2CO)cc1OC (centres unmarked) [drawing 69],+++,++,++

# Same assay, conditions: 1-10 mg/kg i.v.
Structure (SMILES),PGI2 Effect: Lowering of blood pressure,TXA2 Effect: Bronchospasm,TXA2 Effect: Thrombocytopenia
O=C1CC(CO)C(c2ccccc2)=NN1 (centres unmarked) [drawing 53],(+),(+),-
CC(=O)Nc1ccc(C2=NN(C)C(=O)CC2CO)cc1 (centres unmarked) [drawing 61],(+),(+),(+)
COc1ccc(C2=NNC(=O)CC2CO)cc1 (centres unmarked) [drawing 55],++,(+),-
O=C1CC(CO)C(c2cccc([N+](=O)[O-])c2)=NN1 (centres unmarked) [drawing 57],(+ ),++,+
COc1ccc(C2=NNC(=O)CC2COC(=O)COc2ccc(Cl)cc2)cc1OC (centres unmarked) [drawing 71],+,(+),-
O=C1CC(CO)C(c2ccco2)=NN1 (centres unmarked),-,(+),(+)
O=C1CC(CO)C(c2ccc(OCc3cccnc3)cc2)=NN1 (centres unmarked) [drawing 73],-,+,+
Cc1cc(COc2ccc(C3=NNC(=O)CC3CO)cc2)[nH]c(=O)c1 (centres unmarked),-,(+),(+)
Cc1ccc(C2=NNC(=O)CC2CO)cc1 (centres unmarked) [drawing 54],(+),(+),(+)
Cc1nnc(COc2ccc(C3=NNC(=O)CC3CO)cc2)o1 (centres unmarked) [drawing 58],+,++,++
O=C1CC(CO)C(c2c[nH]c3ccccc23)=NN1 (centres unmarked) [drawing 70],(+),+,+++
O=C1CC(CO)C(c2ccc[nH]2)=NN1 (centres unmarked) [drawing 63],(+),++,+++
COc1ccc(C2=NNC(=O)CC2COC(=O)c2cccnc2)cc1OC (centres unmarked) [drawing 59],-,(+),(+)
O=C1CC(CO)C(c2ccc(OCCn3ccnc3)cc2)=NN1 (centres unmarked) [drawing 66],(+),+,++
O=C1CC(CO)C(c2ccc(Cl)cc2)=NN1 (centres unmarked) [drawing 56],(+),(+),(+)

# Same assay, conditions: 3-10 mg/kg i.v.
Structure (SMILES),PGI2 Effect: Lowering of blood pressure,TXA2 Effect: Bronchospasm,TXA2 Effect: Thrombocytopenia
O=C1CC(CO)C(c2cccs2)=NN1 (centres unmarked) [drawing 68],(+),(+),(+)

# Tested on: thrombocyte aggregation induced by thrombin
# Test: Inhibition of thrombocyte aggregation in vitro (Born), thrombin
# Assay type: cell-based
# Details: induced by 0.2-0.4 N.I.H. units/ml (thrombin)
# Procedure: as §1
# Inhibition of thrombocyte aggregation in vitro
# (according to BORN) induced by 0.2-0.4 N.I.H. units/ml
row,Structure (SMILES),IC50 [µM]
1,O=C1CC(CO)C(c2ccc(Cl)cc2)=NN1 (centres unmarked) [drawing 99],6
2,COc1ccc(C2=NNC(=O)CC2CO)cc1OC (centres unmarked) [drawing 101],2
3,CC(=O)Nc1ccc(C2=NNC(=O)CC2CO)cc1 (centres unmarked) [drawing 100],0.7
4,COc1ccc(C2=NNC(=O)CC2CO)cc1 (centres unmarked) [drawing 98],2.5
5,COc1ccc(C2=NNC(=O)CC2COC(=O)COc2ccc(Cl)cc2)cc1OC (centres unmarked) [drawing 102],> 100

# Tested on: experimental thrombosis, venous
# Test: Venous thrombotic protection, experimental thrombosis in vivo (Harbauer)
# Details: 0.3 mg/kg i.p.
# Procedure: (§2) The values of the arterial thrombotic protection given in table 1 were determined in rats according to the method of Meng and Seuter (Naunyn-Schmiedeberg's Arch. Pharmacol. 301, 115 (1977)), those of the venous thrombotic protection were determined in rabbits according to the Harbauer method ("Versuche zur Entwicklung eines standardisierten venosen Thrombosemodells am Kaninchen" ("Tests for developing a standardized venous thrombotic model in rabbits"), 17th Angiologic Symposium, Kitzbuhel (1982)).
# (§3) Influence on the experimental thrombosis in vivo
row,Structure (SMILES),Thrombotic Protection % venous (rabbit) [%]
1,CC(=O)Nc1ccc(C2=NNC(=O)CC2CO)cc1 (centres unmarked) [drawing 46],60

# Same assay, conditions: 1 mg/kg i.p.
row,Structure (SMILES),Thrombotic Protection % venous (rabbit) [%]
1,CC(=O)Nc1ccc(C2=NNC(=O)CC2CO)cc1 (centres unmarked) [drawing 46],78

# Same assay, conditions: 3 mg/kg i.p.
row,Structure (SMILES),Thrombotic Protection % venous (rabbit) [%]
1,O=C1CC(CO)C(c2ccc(OCCn3ccnc3)cc2)=NN1 (centres unmarked) [drawing 47],57

# Same assay, conditions: 10 mg/kg i.p.
row,Structure (SMILES),Thrombotic Protection % venous (rabbit) [%]
1,O=C1CC(CO)C(c2ccc(OCCn3ccnc3)cc2)=NN1 (centres unmarked) [drawing 47],86
2,O=C1CC(CO)C(c2ccc(Cl)cc2)=NN1 (centres unmarked) [drawing 44],57
3,O=C1CC(CO)C(c2ccc(N3CCCC3=O)cc2)=NN1 (centres unmarked) [drawing 48],83
4,Cc1nnc(COc2ccc(C3=NNC(=O)CC3CO)cc2)o1 (centres unmarked) [drawing 45],50

# Tested on: thrombocyte aggregation induced by arachidonic acid
# Test: Inhibition of thrombocyte aggregation in vitro (Born), arachidonic acid
# Assay type: cell-based
# Details: induced by 0.36 mM of arachidonic acid
# Procedure: as §1
# Inhibition of thrombocyte aggregation in vitro (according to BORN)
# induced by 0.36 mM of arachidonic acid
row,Structure (SMILES),IC50 [µM]
1,O=C1CC(CO)C(c2cccc([N+](=O)[O-])c2)=NN1 (centres unmarked) [drawing 78],1.5
2,Cc1nnc(COc2ccc(C3=NNC(=O)CC3CO)cc2)o1 (centres unmarked) [drawing 79],1
3,O=C1CC(CO)C(c2ccc(OCCn3ccnc3)cc2)=NN1 (centres unmarked) [drawing 80],2
4,Cc1cc(COc2ccc(C3=NN(C)C(=O)CC3CO)cc2)[nH]c(=O)c1 (centres unmarked),15
5,CC(=O)Nc1ccc(C2=NN(C)C(=O)CC2CO)cc1 (centres unmarked) [drawing 82],> 100
6,COc1ccc(C2=NNC(=O)CC2COC(=O)COc2ccc(Cl)cc2)cc1OC (centres unmarked) [drawing 83],4
7,COc1cc(C2=NNC(=O)CC2CO)cc(OC)c1OC (centres unmarked),6
8,COc1ccc(C2=NN(C)C(=O)CC2CO)cc1OC (centres unmarked),40
9,N#Cc1ccc(C2=NNC(=O)CC2CO)cc1 (centres unmarked) [drawing 81],0.3
10,O=C1CC(CO)C(c2ccccc2)=NN1 (centres unmarked) [drawing 75],5
11,O=C1CC(CO)C(c2ccc(OCc3cccnc3)cc2)=NN1 (centres unmarked) [drawing 85],0.45

# Now from value to compound:
row,IC50 [µM],Structure (SMILES)
1,50,O=C1CC(CO)C(c2cccs2)=NN1 (centres unmarked) [drawing 86]
2,0.6,COc1ccc(C2=NNC(=O)CC2CO)cc1OC (centres unmarked) [drawing 88]
3,0.55,O=C1CC(CO)C(c2c[nH]c3ccccc23)=NN1 (centres unmarked) [drawing 93]
4,30,COc1ccc(C2=NNC(=O)CC2COC(=O)c2cccnc2)cc1OC (centres unmarked) [drawing 94]
5,0.2,CC(=O)Nc1ccc(C2=NNC(=O)CC2CO)cc1 (centres unmarked) [drawing 91]
6,0.4,O=C1CC(CO)C(c2ccc(N3CCCC3=O)cc2)=NN1 (centres unmarked) [drawing 87]
7,0.9,O=C1CC(CO)C(c2ccc(Cl)cc2)=NN1 (centres unmarked) [drawing 90]

# Tested on: experimental thrombosis, arterial
# Test: Arterial thrombotic protection, experimental thrombosis in vivo (Meng and Seuter)
# Details: 0.3 mg/kg i.p.
# Procedure: as §2, §3
row,Structure (SMILES),Thrombotic Protection % arterial (rat) [%]
1,CC(=O)Nc1ccc(C2=NNC(=O)CC2CO)cc1 (centres unmarked) [drawing 46],30

# Same assay, conditions: 1 mg/kg i.p.
row,Structure (SMILES),Thrombotic Protection % arterial (rat) [%]
1,CC(=O)Nc1ccc(C2=NNC(=O)CC2CO)cc1 (centres unmarked) [drawing 46],80
2,O=C1CC(CO)C(c2ccc[nH]2)=NN1 (centres unmarked) [drawing 50],42
